According to publication PMC6874406 (Journal of photochemistry and photobiology. A, Chemistry, 2019):
Like-named read-outs stand apart in the source and are kept apart here.

Key:
[1] = target: T1, human serum albumin (HSA) (Homo sapiens, UniProt P02768); assay: fluorescence titration; type: binding
[2] = target: T1, human serum albumin (HSA); assay: fluorescence titration; type: binding; remark: listed apart in the source

T1 sequence (P02768 25-609): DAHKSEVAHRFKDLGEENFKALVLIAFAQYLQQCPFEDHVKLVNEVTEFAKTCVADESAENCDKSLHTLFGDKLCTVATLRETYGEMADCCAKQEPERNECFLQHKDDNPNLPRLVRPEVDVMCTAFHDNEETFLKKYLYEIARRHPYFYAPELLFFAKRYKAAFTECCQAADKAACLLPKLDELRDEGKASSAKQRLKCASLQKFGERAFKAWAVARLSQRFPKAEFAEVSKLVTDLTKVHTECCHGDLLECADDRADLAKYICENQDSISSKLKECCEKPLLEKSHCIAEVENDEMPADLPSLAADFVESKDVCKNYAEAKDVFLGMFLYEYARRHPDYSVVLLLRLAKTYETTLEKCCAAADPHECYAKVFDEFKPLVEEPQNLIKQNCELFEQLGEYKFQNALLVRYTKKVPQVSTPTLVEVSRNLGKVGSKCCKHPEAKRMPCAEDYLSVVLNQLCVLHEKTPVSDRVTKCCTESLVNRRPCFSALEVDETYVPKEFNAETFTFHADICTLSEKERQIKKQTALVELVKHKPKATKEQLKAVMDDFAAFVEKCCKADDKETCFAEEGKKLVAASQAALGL

Row | Kd [1] [µM] | Kd [2] [µM] | Compound
1 | 6.67 | – | COc1cc(/C=C/C2=C(C#N)C(=C(C#N)C#N)OC2(C)C)cc(OC)c1O [compound 1, (E)-2-(3-cyano-4-(4-hydroxy-3,5-dimethoxystyryl)-5,5-dimethylfuran-2(5H)-ylidene)malononitrile]
2 | – | 5.26 | CC1(C)OC(=C(C#N)C#N)C(C#N)=C1/C=C/c1ccc(O)cc1 [compound 2, fluorophore 2]
